According to PMC3791872 (Bioscience Reports, 2013):

Assays:
pUC19 = experiment: DNA intercalation assay (Topo I-relaxed plasmid); type: biochemical; conditions: 1 mM inhibitor added after plasmid relaxation (Figure 3C)
Excerpt: To examine this model, we tested our inhibitors in a standard topoisomerase assay. The rationale of this assay is that intercalating compounds will introduce supercoils into a fully relaxed plasmid. Topo I will remove these introduced supercoils, but after quenching and gel electrophoresis the intercalator will diffuse away and produce a detectable compensatory supercoiling increase.

Mcm2-7 = test system: T1, Mcm2-7; experiment: Steady-state ATP hydrolysis by Mcm2-7; type: biochemical, Saccharomyces cerevisiae; conditions: 1 mM compound, 100 nM hexamer
T1 construct: made in house; host or cells: baculovirus-infected insect cells

SV40 large TAg = target: T2, SV40 large TAg (Simian virus 40, UniProt P03070); experiment: Steady-state ATP hydrolysis by TAg; type: biochemical, SV40 (simian virus 40); conditions: 1 mM compound, 100 nM hexamer
T2 construct: made in house
T2 sequence (P03070 whole entry): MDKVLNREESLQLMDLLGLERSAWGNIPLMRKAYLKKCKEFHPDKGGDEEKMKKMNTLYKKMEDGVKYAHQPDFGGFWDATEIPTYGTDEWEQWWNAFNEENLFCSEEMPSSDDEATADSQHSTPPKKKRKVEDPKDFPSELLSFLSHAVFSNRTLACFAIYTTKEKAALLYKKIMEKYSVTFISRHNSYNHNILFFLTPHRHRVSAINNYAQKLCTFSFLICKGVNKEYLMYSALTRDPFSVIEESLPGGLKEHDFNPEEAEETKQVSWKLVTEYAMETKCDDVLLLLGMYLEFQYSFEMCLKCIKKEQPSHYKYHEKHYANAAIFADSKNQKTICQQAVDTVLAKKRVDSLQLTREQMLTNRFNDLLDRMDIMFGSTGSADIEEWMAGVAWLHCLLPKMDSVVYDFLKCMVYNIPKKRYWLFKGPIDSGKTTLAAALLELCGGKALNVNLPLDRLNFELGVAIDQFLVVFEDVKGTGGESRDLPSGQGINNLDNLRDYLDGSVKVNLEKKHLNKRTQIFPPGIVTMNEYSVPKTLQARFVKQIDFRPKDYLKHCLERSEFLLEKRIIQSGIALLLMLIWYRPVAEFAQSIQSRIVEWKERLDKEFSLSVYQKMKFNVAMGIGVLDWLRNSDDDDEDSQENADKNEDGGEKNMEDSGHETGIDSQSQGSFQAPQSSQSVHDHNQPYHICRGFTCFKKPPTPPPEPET

O=C(O)c1cn(C2CC2)c2cc(N3CCNCC3)c(F)cc2c1=O [Ciprofloxacin, ciprofloxacin, reference compound]
DNA intercalation (pUC19): little or no intercalation | effect on ATP hydrolysis of Mcm2-7 (Mcm2-7): only modest effects | effect on ATP hydrolysis of TAg (SV40 large TAg): only modest effects
